Results: PubChem BioAssay AID256 (DTP/NCI, 2004)
“And” between values parts separate entries of the source, which are not always exact repeats. Identical values can stand only once. Inconclusive results and toxic doses are left out.

Test system: CD2F1 mice, L1210 leukemia ip, survival T/C
Assay: NCI In Vivo Anticancer Drug Screen. Data for tumor model L1210 Leukemia (intraperitoneal) in CD2F1 (CDF1) mice
Conditions: higher = longer survival
In short: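 Tumor-bearing mice (transplanted tumor) were split into treated and vehicle control groups, and the measured endpoint of each treated group was divided by that of its vehicle controls.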

[1] = endpoint: mean survival time, dose: 100.0 mg/kg/injection, schedule: Q04DX002 (ip), vehicle: saline with Tween-80
[2] = endpoint: mean survival time, dose: 100.0 mg/kg/injection, schedule: Q04DX003 (ip), vehicle: saline with Tween-80
[3] = endpoint: mean survival time, dose: 200.0 mg/kg/injection, schedule: Q04DX003 (ip), vehicle: saline with Tween-80
[4] = endpoint: mean survival time, dose: 400.0 mg/kg/injection, schedule: Q04DX003 (ip), vehicle: saline with Tween-80
[5] = endpoint: mean survival time, dose: 100.0 mg/kg/injection, schedule: Q01DX001 (ip), vehicle: saline with Tween-80
[6] = endpoint: mean survival time, dose: 200.0 mg/kg/injection, schedule: Q01DX001 (ip), vehicle: saline with Tween-80
[7] = endpoint: mean survival time, dose: 100.0 mg/kg/injection, schedule: Q01DX001 (ip), vehicle: saline
[8] = endpoint: mean survival time, dose: 200.0 mg/kg/injection, schedule: Q01DX001 (ip), vehicle: saline
[9] = endpoint: mean survival time, dose: 400.0 mg/kg/injection, schedule: Q01DX001 (ip), vehicle: saline
[10] = endpoint: mean survival time, dose: 100.0 mg/kg/injection, schedule: Q04DX003 (ip), vehicle: saline
[11] = endpoint: mean survival time, dose: 50.0 mg/kg/injection, schedule: Q01DX009 (ip), vehicle: saline with Tween-80
[12] = endpoint: mean survival time, dose: 100.0 mg/kg/injection, schedule: Q01DX009 (ip), vehicle: saline with Tween-80
[13] = endpoint: mean survival time, dose: 200.0 mg/kg/injection, schedule: Q01DX009 (ip), vehicle: saline with Tween-80
[14] = endpoint: mean survival time, dose: 400.0 mg/kg/injection, schedule: Q01DX009 (ip), vehicle: saline with Tween-80
[15] = endpoint: mean survival time, dose: 100.0 mg/kg/injection, schedule: Q01DX009 (ip), vehicle: saline

`CC/C=C(\C)CC(C)O` (stereo not given) was tested, and the T/C (endpoint: mean survival time, dose: 25.0 mg/kg/injection, schedule: Q04DX002 (ip), vehicle: saline with Tween-80) was 93 % of control, the T/C (endpoint: mean survival time, dose: 50.0 mg/kg/injection, schedule: Q04DX002 (ip), vehicle: saline with Tween-80) was 89 % of control and the T/C [1] was 89 % of control.
With `O=C(NCCN1CCCCC1)C(O)(C1CCCCC1)C1CCCCC1` the T/C (endpoint: mean survival time, dose: 75.0 mg/kg/injection, schedule: Q01DX001 (ip), vehicle: saline) was 97 % of control, the T/C (endpoint: mean survival time, dose: 150.0 mg/kg/injection, schedule: Q01DX001 (ip), vehicle: saline) was 97 % of control and the T/C (endpoint: mean survival time, dose: 300.0 mg/kg/injection, schedule: Q01DX001 (ip), vehicle: saline) was 97 % of control.
`C(=NCc1ccccc1)c1ccccc1-c1ccccc1C=NCc1ccccc1` was tested, and the T/C [2] was 97 % of control, the T/C [3] was 107 % of control and the T/C [4] was 106 % of control.
For `CCOC1OC(C(COC(C)=O)OC(C)=O)C(OC(C)=O)C(OC(C)=O)C1OC(C)=O` (stereo not given), the T/C [5] was 104 % of control, the T/C [6] was 96 % of control and the T/C (endpoint: mean survival time, dose: 400.0 mg/kg/injection, schedule: Q01DX001 (ip), vehicle: saline with Tween-80) was 101 % of control.
For `O=[N+]([O-])C1(Br)C(c2ccccc2)C=CC(c2ccccc2)C1c1ccccc1` (stereo not given), the T/C [2] was 95 % of control, the T/C [3] was 95 % of control and the T/C [4] was 91 % of control.
In the case of `CCOC(=O)CC(C)(C)NCc1ccccc1`, the T/C (endpoint: mean survival time, dose: 25.0 mg/kg/injection, schedule: Q01DX009 (ip), vehicle: Klucel (hydroxypropylcellulose) (HPC)) was 91 % of control, the T/C (endpoint: mean survival time, dose: 50.0 mg/kg/injection, schedule: Q01DX009 (ip), vehicle: Klucel (hydroxypropylcellulose) (HPC)) was 97 % of control and the T/C (endpoint: mean survival time, dose: 100.0 mg/kg/injection, schedule: Q01DX009 (ip), vehicle: Klucel (hydroxypropylcellulose) (HPC)) was 91 % of control.
For `NC(CO)C(O)C(O)C(O)CO` (stereo not given), the T/C [7] was 106 % of control, the T/C [8] was 98 % of control and the T/C [9] was 103 % of control.
`C=CC1(C)CC(=O)C2(O)C(C)(O1)C(OC(C)=O)C(O)C1C(C)(C)CCC(O)C12C` (stereo not given) was tested, and the T/C (endpoint: median survival time, dose: 4.0 mg/kg/injection, schedule: Q01DX005 (ip), vehicle: other) was 98 % of control, the T/C (endpoint: median survival time, dose: 8.0 mg/kg/injection, schedule: Q01DX005 (ip), vehicle: other) was 101 % of control and the T/C (endpoint: median survival time, dose: 16.0 mg/kg/injection, schedule: Q01DX005 (ip), vehicle: other) was 93 % of control.
With `COc1cc2c(cc1OC)C(C)=NCC2` the T/C [10] was 104 % of control.
For `[CH3][Sn]([CH3])([Cl])[c]1cc[c]([Sn]([CH3])([CH3])[Cl])cc1`, the T/C (endpoint: median survival time, dose: 0.12 mg/kg/injection, schedule: Q01DX009 (ip), vehicle: saline) was 100 % of control, the T/C (endpoint: median survival time, dose: 0.25 mg/kg/injection, schedule: Q01DX009 (ip), vehicle: saline) was 101 % of control and the T/C (endpoint: median survival time, dose: 0.5 mg/kg/injection, schedule: Q01DX009 (ip), vehicle: saline) was 105 % of control. For the same compound, the T/C (endpoint: median survival time, dose: 1.0 mg/kg/injection, schedule: Q01DX009 (ip), vehicle: saline) was 101 % of control and 108 % of control and the T/C (endpoint: median survival time, dose: 2.0 mg/kg/injection, schedule: Q01DX009 (ip), vehicle: saline) was 108 % of control and 110 % of control.
`Cc1noc2nccnc12` was tested, and the T/C [11] was 103 % of control, the T/C [12] was 101 % of control and the T/C [2] was 94 % of control.
`NC(CS(=O)(=O)O)c1ccccc1` (stereo not given) was tested, and the T/C [7] was 110 % of control, the T/C [10] was 96 % of control and the T/C [8] was 110 % of control. For the same compound, the T/C (endpoint: mean survival time, dose: 200.0 mg/kg/injection, schedule: Q04DX003 (ip), vehicle: saline) was 98 % of control, the T/C [9] was 110 % of control and the T/C (endpoint: mean survival time, dose: 400.0 mg/kg/injection, schedule: Q04DX003 (ip), vehicle: saline) was 97 % of control.
For `CSC(=S)N(C)/N=C/c1ccccc1O`, the T/C [12] was 97 % of control, the T/C [2] was 102 % of control and the T/C [13] was 93 % of control. The T/C [3] was 92 % of control, the T/C [14] was 92 % of control and the T/C [4] was 100 % of control.
With `Cc1cc(C)c2ccc(Cl)nc2n1` the T/C (endpoint: mean survival time, dose: 75.0 mg/kg/injection, schedule: Q01DX001 (ip), vehicle: other) was 100 % of control.
For `COc1ccc2nc3cc(Cl)ccc3c(Nc3ccc(NS(C)(=O)=O)cc3)c2n1`, the T/C (endpoint: mean survival time, dose: 12.5 mg/kg/injection, schedule: Q01DX009 (ip), vehicle: other) was 96 % of control, the T/C (endpoint: mean survival time, dose: 25.0 mg/kg/injection, schedule: Q01DX009 (ip), vehicle: other) was 104 % of control and the T/C (endpoint: mean survival time, dose: 50.0 mg/kg/injection, schedule: Q01DX009 (ip), vehicle: other) was 96 % of control. The T/C (endpoint: mean survival time, dose: 100.0 mg/kg/injection, schedule: Q01DX009 (ip), vehicle: other) was 94 % of control.
`CCOc1ccccc1/C=C1\N=C(c2cc(OC)c(OC)c(OC)c2)OC1=O` was tested, and the T/C [1] was 106 % of control, the T/C (endpoint: mean survival time, dose: 200.0 mg/kg/injection, schedule: Q04DX002 (ip), vehicle: saline with Tween-80) was 100 % of control and the T/C (endpoint: mean survival time, dose: 400.0 mg/kg/injection, schedule: Q04DX002 (ip), vehicle: saline with Tween-80) was 95 % of control.
In the case of `CC(CCc1ccc(S(=O)(=O)Cl)cc1)c1ccc(S(=O)(=O)Cl)cc1` (stereo not given), the T/C [11] was 106 % of control, the T/C [12] was 95 % of control and the T/C [13] was 91 % of control.
With `Cc1cc(NCCCN(C)C)c2ccc3c(ccc4c(NCCCN(C)C)cc(C)nc43)c2n1` the T/C (endpoint: median survival time, dose: 0.38 mg/kg/injection, schedule: Q01DX009 (ip), vehicle: saline) was 95 % of control, the T/C (endpoint: median survival time, dose: 0.75 mg/kg/injection, schedule: Q01DX009 (ip), vehicle: saline) was 93 % of control and the T/C (endpoint: median survival time, dose: 1.5 mg/kg/injection, schedule: Q01DX009 (ip), vehicle: saline) was 113 % of control. The T/C (endpoint: median survival time, dose: 3.0 mg/kg/injection, schedule: Q01DX009 (ip), vehicle: saline) was 110 % of control.
`CC(C)(C)CC(C)(C)c1ccc(O)c(Cl)c1` was tested, and the T/C [2] was 96 % of control, the T/C [3] was 100 % of control and the T/C [4] was 106 % of control.
`[Cl][Pt+2][Cl].[NH-]c1cc(Cl)c(Cl)c(Cl)c1[NH-]` was tested, and the T/C (endpoint: mean survival time, dose: 2.5 mg/kg/injection, schedule: Q01DX009 (ip), vehicle: saline with Tween-80) was 105 % of control, the T/C (endpoint: mean survival time, dose: 5.0 mg/kg/injection, schedule: Q01DX009 (ip), vehicle: saline with Tween-80) was 100 % of control and the T/C (endpoint: mean survival time, dose: 10.0 mg/kg/injection, schedule: Q01DX009 (ip), vehicle: saline with Tween-80) was 100 % of control. The T/C (endpoint: mean survival time, dose: 20.0 mg/kg/injection, schedule: Q01DX009 (ip), vehicle: saline with Tween-80) was 107 % of control and the T/C (endpoint: mean survival time, dose: 40.0 mg/kg/injection, schedule: Q01DX009 (ip), vehicle: saline with Tween-80) was 94 % of control.
With `c1ccc2c[n+]3ccccc3cc2c1` the T/C (endpoint: mean survival time, dose: 12.5 mg/kg/injection, schedule: Q04DX003 (ip), vehicle: saline) was 97 % of control and the T/C (endpoint: mean survival time, dose: 25.0 mg/kg/injection, schedule: Q04DX003 (ip), vehicle: saline) was 98 % of control.
With `CC(C)(C)C=O` the T/C [15] was 95 % of control, the T/C (endpoint: mean survival time, dose: 200.0 mg/kg/injection, schedule: Q01DX009 (ip), vehicle: saline) was 102 % of control and the T/C (endpoint: mean survival time, dose: 400.0 mg/kg/injection, schedule: Q01DX009 (ip), vehicle: saline) was 96 % of control.
With `O=C1c2c(O)ccc(O)c2C(=O)c2c(NCCO)ccc(NCCO)c21` the T/C [12] was 103 % of control, the T/C [13] was 110 % of control and the T/C [14] was 113 % of control.
`Cc1noc2c1ncc[n+]2[O-]` was tested, and the T/C (endpoint: mean survival time, dose: 5.0 mg/kg/injection, schedule: Q04DX003 (ip), vehicle: saline) was 101 % of control, the T/C (endpoint: mean survival time, dose: 10.0 mg/kg/injection, schedule: Q04DX003 (ip), vehicle: saline) was 101 % of control and the T/C (endpoint: mean survival time, dose: 20.0 mg/kg/injection, schedule: Q04DX003 (ip), vehicle: saline) was 100 % of control.
In the case of `CCCOCC(O)CNCCN` (stereo not given), the T/C (endpoint: mean survival time, dose: 12.5 mg/kg/injection, schedule: Q01DX009 (ip), vehicle: saline) was 96 % of control and 101 % of control, the T/C (endpoint: mean survival time, dose: 25.0 mg/kg/injection, schedule: Q01DX009 (ip), vehicle: saline) was 94 % of control and 98 % of control and the T/C (endpoint: mean survival time, dose: 50.0 mg/kg/injection, schedule: Q01DX009 (ip), vehicle: saline) was 93 % of control and 94 % of control. For the same compound, the T/C [15] was 93 % of control and 96 % of control.
`O=C(Nc1cc2ccccc2o1)N1CCOCC1` was tested, and the T/C (endpoint: mean survival time, dose: 50.0 mg/kg/injection, schedule: Q01DX001 (ip), vehicle: saline with Tween-80) was 94 % of control, the T/C [5] was 97 % of control and the T/C [6] was 100 % of control.
With `CN(C)/C=N/N=C1c2ccccc2-c2ccccc21` the T/C [12] was 93 % of control, the T/C [2] was 100 % of control and the T/C [13] was 98 % of control. The T/C [3] was 94 % of control, the T/C [14] was 90 % of control and the T/C [4] was 101 % of control.
For `Nc1nc([S-])c2[nH]cnc2n1.[Cl-].[Cl-].[H+].[Pd+2].[Pd+2].[Pd+2]`, the T/C (endpoint: mean survival time, dose: 3.13 mg/kg/injection, schedule: Q04DX003 (ip), vehicle: saline with Tween-80) was 124 % of control, the T/C (endpoint: mean survival time, dose: 6.25 mg/kg/injection, schedule: Q04DX003 (ip), vehicle: saline with Tween-80) was 164 % of control and the T/C (endpoint: mean survival time, dose: 100.0 mg/kg/injection, schedule: Q04DX003 (ip), vehicle: suspension in saline) was 114 % of control and 91 % of control.
